Experimental findings from ChEMBL document CHEMBL3864166, “4-Carbonyl-2,6-dibenzylidenecyclohexanone derivatives as small molecule inhibitors of STAT3 signaling pathway” (Bioorg Med Chem, 2016) are described below.

Activity calls are given as the source filed them. The calls are words filed in the database; no cut-off is given here. Where only a bound is given, the exact number is not on record here.

Data set [1] in a line: Antiproliferative activity against human A549 cells after 48 hrs by MTT assay. Format: functional, cell-based. The note with it: A549, 48 h. In general terms: Formazan colour is commonly taken as a measure of viable cells.
A further data set deals with DU-145. Nature of the data set: Selectivity ratio of IC50 for human DU145 cells to IC50 for human MDA-MB-231 cells. Format: functional.
Data set [2] is described as follows: Antiproliferative activity against human DU145 cells after 48 hrs by MTT assay. Format: functional, cell-based. The note with it: DU-145, 48 h.
Data set [3] can be described thus: Antiproliferative activity against human MDA-MB-231 cells after 48 hrs by MTT assay. The class given is functional, cell-based. The note with it: MDA-MB-231, 48 h.
Data set [4] concerns A549. Nature of the data set: Selectivity ratio of IC50 for human DU145 cells to IC50 for human A549 cells. Format: functional.
The nature of data set [5]: Cytotoxicity against human HL-7702 cells assessed as reduction in cell viability after 48 hrs by MTT assay. Format: toxicity, cell-based. The note with it: l02, 48 h.
Data set [6] has as its target T1, Signal transducer and activator of transcription 3 (Homo sapiens, UniProt P40763). Briefly: Inhibition of IL6-stimulated STAT3 phosphorylation at Tyr-705 residue in human MDA-MB-231 cells at 1 to 4 uM preincubated for 2 hrs followed by IL6 stimulation measured after 30 mins by Western blot analysisis. The class given is cell-based. In general terms: A western blot detects proteins with antibodies after separation by electrophoresis.

The subject of data set [7] is A549. Nature of the data set: Induction of apoptosis in human A549 cells assessed increase in cleaved PARP levels up to 4 uM after 24 hrs by Western blot analysisis. Format: functional, cell-based.
Data set [8] deals with T1, Signal transducer and activator of transcription 3. Nature of the data set: Binding affinity to STAT3 (unknown origin) expressed in Escherichia coli expression system by SPR assay. Background: Surface plasmon resonance follows binding to a sensor surface in real time, without labels.
Data set [9] is described as follows: Effect on total STAT3 protein expression in human A549 cells at 1 to 4 uM after 24 hrs by Western blot analysis. The note with it: a549, 24 h. The class given is ADME, cell-based.
Data set [10] addresses T1, Signal transducer and activator of transcription 3. Briefly: Inhibition of STAT3 phosphorylation at tyr705 in human A549 cells at 4 uM after 24 hrs by Western blot analysisis. The class given is cell-based.
Data set [11] is described as follows: Effect on total STAT3 protein expression in human MDA-MB-231 cells at 1 to 4 uM after 24 hrs by Western blot analysis. Format: ADME, cell-based. The note with it: mda-mb-231, 24 h.
Another data set relates to MDA-MB-231. Briefly: Induction of apoptosis in human MDA-MB-231 cells assessed increase in cleaved PARP levels at 1 to 4 uM after 24 hrs by Western blot analysisis. Format: functional, cell-based.
A short description of data set [12]: Downregulation of IL6-stimulated STAT3 expression in human MDA-MB-231 cells at 1 to 4 uM preincubated for 2 hrs followed by IL6 stimulation measured after 30 mins by Western blot analysisis. Format: functional, cell-based.
Data set [13] has as its target T1, Signal transducer and activator of transcription 3. Nature of the data set: Inhibition of STAT3 phosphorylation at tyr705 in human A549 cells after 24 hrs by Western blot analysisis. The class given is cell-based.
Data set [14] shares this target. Nature of the data set: Inhibition of STAT3 phosphorylation at tyr705 in human MDA-MB-231 cells at 4 uM after 24 hrs by Western blot analysisis. Format: cell-based.
The target is the same in data set [15]. Nature of the data set: Inhibition of STAT3 phosphorylation at tyr705 in human MDA-MB-231 cells after 24 hrs by Western blot analysisis. Format: cell-based.

T1 sequence (P40763 whole entry): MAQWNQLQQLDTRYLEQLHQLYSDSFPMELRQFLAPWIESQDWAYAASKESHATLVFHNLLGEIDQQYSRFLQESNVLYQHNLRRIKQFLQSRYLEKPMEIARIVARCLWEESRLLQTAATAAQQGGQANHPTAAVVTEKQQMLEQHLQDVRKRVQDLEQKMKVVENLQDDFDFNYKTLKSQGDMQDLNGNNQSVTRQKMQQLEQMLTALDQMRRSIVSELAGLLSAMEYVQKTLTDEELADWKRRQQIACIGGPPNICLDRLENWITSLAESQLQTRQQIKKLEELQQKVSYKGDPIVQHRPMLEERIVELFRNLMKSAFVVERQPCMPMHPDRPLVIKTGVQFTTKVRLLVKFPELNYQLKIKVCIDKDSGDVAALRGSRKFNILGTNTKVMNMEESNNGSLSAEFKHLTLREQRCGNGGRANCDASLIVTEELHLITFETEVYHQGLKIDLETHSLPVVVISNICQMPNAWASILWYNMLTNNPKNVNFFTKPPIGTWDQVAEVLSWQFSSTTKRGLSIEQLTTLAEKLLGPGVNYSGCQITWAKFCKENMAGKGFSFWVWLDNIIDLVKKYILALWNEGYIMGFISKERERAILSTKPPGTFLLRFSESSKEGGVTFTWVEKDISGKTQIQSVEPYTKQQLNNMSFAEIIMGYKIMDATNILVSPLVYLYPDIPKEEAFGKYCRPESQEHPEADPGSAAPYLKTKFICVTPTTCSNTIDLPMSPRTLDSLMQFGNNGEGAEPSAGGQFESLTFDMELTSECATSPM

For the compound `COc1ccc(/C=C2\CC(C(=O)N3CCN(C(C)=O)CC3)C/C(=C\c3ccc(OC)cc3)C2=O)cc1` (centres undefined), the IC50 in data set [1] turned out to be 8.02 µM; in data set [2], 17.4 µM; in data set [3], 5.84 µM. Besides, in the data set with DU-145, the “Ratio IC50” value is 3.

Turning to `CCN(CC)CCNC(=O)C1C/C(=C\c2ccc(OC)cc2)C(=O)/C(=C/c2ccc(OC)cc2)C1` (centres undefined), the IC50 in data set [1] stood at 6.47 µM; in data set [2], 6.89 µM; in data set [3] it was 3.78 µM. Also, the “Ratio IC50” value with DU-145 is 1.8.

Turning to `COc1ccc(/C=C2\CC(C(=O)Nc3cccc(N4CCN(C)CC4)c3)C/C(=C\c3ccc(OC)cc3)C2=O)cc1` (centres undefined), the figures for the IC50 in [1], in data set [2] and in data set [3] were 3.69 µM, 10.1 µM and 3.39 µM, respectively. Besides, the “Ratio IC50” value in the data set on DU-145 is 3.

For the compound `COc1ccc(/C=C2\CC(C(=O)Nc3ccccc3)C/C(=C\c3ccc(OC)cc3)C2=O)cc1` (centres undefined), the IC50 in data set [1], in data set [2] and in [3] was more than 20 µM each time.

Consider `CCN(CC)CCNC(=O)C1C/C(=C\c2ccccc2)C(=O)/C(=C/c2ccccc2)C1` (centres undefined), for which the IC50 amounted to 3.93 µM in data set [1], 4.41 µM in data set [2] and 0.63 µM in data set [3]. In addition, the “Ratio IC50” value in the data set on DU-145 amounted to 7.

Regarding `COc1ccc(/C=C2\CC(C(=O)NC(C)C)C/C(=C\c3ccc(OC)cc3)C2=O)cc1` (centres undefined), the IC50 in [1] was 15.1 µM; in data set [2], more than 20 µM; in [3] it was more than 20 µM.

Turning to `COc1ccc(/C=C2\CC(C(=O)N3CCN(C)CC3)C/C(=C\c3ccc(OC)cc3)C2=O)cc1` (centres undefined), the IC50 was determined as 9.07 µM in [1], 17.6 µM in data set [2] and 5.46 µM in [3]. Moreover, the “Ratio IC50” value in the data set with DU-145 is listed as 3.2.

Take `COc1cc(/C=C/C(=O)CC(=O)/C=C/c2ccc(O)c(OC)c2)ccc1O` [CURCUMIN]: in the data set on A549 [4], the “Ratio IC50” value stood at 3. In addition, the IC50 came out at 15.1 µM in data set [1], 44.7 µM in data set [2] and 24.5 µM in data set [3].

`COc1ccc(/C=C2\CC(C(=O)NCCO)C/C(=C\c3ccc(OC)cc3)C2=O)cc1` (centres undefined): the values for the IC50 in [1], in data set [2] and in data set [3] were 13.7 µM, more than 20 µM and 11.7 µM, respectively.

Turning to `CN1CCN(c2cccc(NC(=O)C3C/C(=C\c4ccccc4)C(=O)/C(=C/c4ccccc4)C3)c2)CC1` (centres undefined), the figures for the IC50 in data set [1], in data set [2] and in data set [3] were 5.96 µM, 8.69 µM and 1.79 µM, respectively. For the same compound, the “Ratio IC50” value with DU-145 came to 4.9.

Take `COc1ccc(/C=C2\CC(C(=O)Nc3cccc(N4CCN(C)CC4)c3)C/C(=C\c3ccc(OC)c(O)c3)C2=O)cc1O` (centres undefined): the IC50 in data set [1] worked out at 7.53 µM; in [2] it was 8.29 µM; in data set [3], 1.6 µM. Moreover, the “Ratio IC50” value with DU-145 was determined as 5.2.

As to `COc1ccc(/C=C2\CC(C(=O)Nc3ccc(OC)cc3)C/C(=C\c3ccc(OC)cc3)C2=O)cc1` (centres undefined), the IC50 in [1], in data set [2] and in data set [3] was more than 20 µM each time.

On to `CCN(CC)CCNC(=O)C1C/C(=C\c2ccc(OC)c(O)c2)C(=O)/C(=C/c2ccc(OC)c(O)c2)C1` (centres undefined), for which the results for the IC50 in [1], in [2] and in [3] were 8.13 µM, more than 20 µM and 6.87 µM, respectively.

Consider `COc1ccc(/C=C2\CC(C(=O)Nc3ccc(N4CCN(C)CC4)cc3)C/C(=C\c3ccc(OC)cc3)C2=O)cc1` (centres undefined), for which the “Ratio IC50” value with A549 [4] worked out at 2.1. Besides, the IC50 in data set [1] came out at 3.09 µM; in [2], 7.03 µM; in data set [3], 3.34 µM.

Turning to `COc1ccc(/C=C2\CC(C(=O)Nc3ccc(N4CCOCC4)cc3)C/C(=C\c3ccc(OC)cc3)C2=O)cc1` (centres undefined), the “Ratio IC50” value in the data set on A549 [4] was determined as 5.7. In addition, the IC50 in [1] was 2.76 µM; in data set [2] it was 15.6 µM; in data set [3] it was 4.21 µM.

Consider `CN1CCN(c2cccc(NC(=O)C3C/C(=C\c4ccc(F)cc4)C(=O)/C(=C/c4ccc(F)cc4)C3)c2)CC1` (centres undefined), for which the IC50 in data set [1] was determined as 3.84 µM; in data set [2] it was 5.96 µM; in [3], 0.78 µM. In the data set on DU-145, the “Ratio IC50” value is 7.6. Besides, in data set [5], the Activity result is on record as “Non-Toxic”.

For the compound `CN1CCN(c2ccc(NC(=O)C3C/C(=C\c4ccc(F)cc4)C(=O)/C(=C/c4ccc(F)cc4)C3)cc2)CC1` (centres undefined), the IC50 in data set [1] was 3.17 µM; in data set [2], 2.63 µM; in data set [3] it was 0.59 µM. In addition, the “Ratio IC50” value with DU-145 was found to be 5.4. The Activity result in [5] is recorded as “Non-Toxic”.

Regarding `CCN(CC)CCNC(=O)C1C/C(=C\c2ccc(F)cc2)C(=O)/C(=C/c2ccc(F)cc2)C1` (centres undefined), the inhibition entry in [6] is “Active”. Besides, the outcome (in the data set with A549 [7]; in the data set on MDA-MB-231; in [12]) was Active. This compound gave a Kd in data set [8] of 7.93 µM. Moreover, the IC50 in data set [1] is 1.88 µM; in data set [2] it was 1.63 µM; in [3], 0.64 µM. In the data set with DU-145, the “Ratio IC50” value is on record as 2.9. In addition, the Activity entry in data set [9], in data set [11] and in data set [5] was “Non-Toxic” in each case. Besides, the inhibition in data set [10] is 100%; in data set [13] it was “Dose-dependent effect”; in data set [14] it was 100%; in data set [15] it was “Dose-dependent effect”.

As to `COc1ccc(/C=C2\CC(C(=O)N3CCOCC3)C/C(=C\c3ccc(OC)cc3)C2=O)cc1` (centres undefined), the results for the IC50 in [1], in data set [2] and in data set [3] were 16.2 µM, more than 20 µM and 11.2 µM, respectively.

Usually IC50 stands for the concentration that gives 50% inhibition. Usually inhibition stands for the drop in the measured response relative to a control, in per cent. What is called Kd is the concentration at which binding is half-saturated. The low end stands for higher affinity, the high end for lower affinity.
